Consider four molecules from article PMC9775409, “Identification, Screening, and Comprehensive Evaluation of Novel DPP-IV Inhibitory Peptides from the Tilapia Skin Gelatin Hydrolysate Produced Using Ginger Protease” (Biomolecules, 2022).

The subject of one data set is DPP-IV. The arrangement: method as in PMID 24650211. Conditions: in words; cited from earlier work.
Data set [1] can be described thus: Oral administration in rats, LC-MS/MS identification of peptides in plasma. Particulars: for Identification in rat plasma, 0.5 h: 0.5 h after oral administration of GPXGPPGPGP; for Identification in rat plasma, 0.5 h / Identification in rat plasma, 1 h: blood from abdominal aorta, ethanol protein precipitation; for Identification in rat plasma, 1 h: 1 h after oral administration of GPXGPPGPGP; for Identified in plasma at 0.5 h: rat plasma 0.5 h after oral administration of GPXGPPGPGP; for Identified in plasma at 0.5 h / Identified in plasma at 1 h: in words; for Identified in plasma at 1 h: rat plasma 1 h after oral administration of GPXGPPGPGP
Procedure: (§1) Blood was collected at 0.5 and 1 h, after oral administration, from the abdominal aorta and centrifuged (3000× g, 5 min) to acquire plasma. Next, the proteins were precipitated by adding three volumes of 100% ethanol and removed using centrifugation. A volume of 6 μL of supernatant were injected into the LC-MS/MS system, as previously described [16].

The next data set relates to Caco-2 cell monolayer. Particulars: cited from earlier work.
For data set [2] the following is noted: in vivo, po.
Procedure: as §1

Where two headings read alike, the source gives them in different places. Non-standard residues stand in square brackets, D forms with d. Residues, ends and D or L forms follow the SMILES beside them. No end group written: not given here. Hyp = O=C(O)[C@@H]1C[C@@H](O)CN1

Take `O=C(O)[C@@H]1C[C@@H](O)CN1C(=O)[C@@H]1CCCN1` [PX, Pro-Hyp] (H-Pro-[Hyp]-OH): in the data set with DPP-IV, the “Inhibitory effect against DPP-IV” value was “not inhibitory against DPP-IV”. In addition, in data set [1], the “Identification in rat plasma, 0.5 h” value is “+”; the “Identification in rat plasma, 1 h” value is reported as “−”; the “Identified in plasma at 0.5 h” value is on record as “identified in plasma at 0.5 h”; the “Identified in plasma at 1 h” value is “not at 1 h”.

On to GA[Hyp]GL[Hyp]GP, for which, in the data set with Caco-2 cell monolayer, the “Passage through the Caco-2 cell monolayer” value was “pass through the Caco-2 cell monolayer by paracellular diffusion”.

As to `NCC(=O)N1CCC[C@H]1C(=O)N1C[C@H](O)C[C@H]1C(=O)O` [GPX, Gly-Pro-Hyp] (H-Gly-Pro-[Hyp]-OH), in data set [2], the “Identification in rat plasma, 0.5 h” value is “+” and the “Identification in rat plasma, 1 h” value was “−”. The “Identified in plasma at 1 h” value in data set [2] (rat) is on record as “not at 1 h”. In addition, the “Inhibitory effect against DPP-IV” value with DPP-IV was “inhibitory effect against DPP-IV”.

Consider `O=C(O)CNC(=O)[C@@H]1C[C@@H](O)CN1C(=O)[C@@H]1CCCN1` [PXG, Pro-Hyp-Gly] (H-Pro-[Hyp]-Gly-OH), for which, in data set [1], the “Identification in rat plasma, 0.5 h” value is reported as “+”; the “Identification in rat plasma, 1 h” value was “−”; the “Identified in plasma at 0.5 h” value was “identified in plasma at 0.5 h”; the “Identified in plasma at 1 h” value is given as “not at 1 h”.
